Results on two substances are retold here after patent US20060216779A1, “Method for the detection of post-translational modification activities and device system for carrying out said method” (priority 2003, published 2006).

A short description of data set [1]: measurement of the relative dielectric constant ε of the peptide in water in a measuring capacitor. Format: physicochemical. To be noted: dissolved in water, 1.14 mM, 4 microlitres, t=23° C. On the procedure:
According to further variant for the detection of posttranslational activities, the dielectric constant (permittivity) of a liquid sample with a sensor is measured. As is evident from FIG. 3A, the sample is located in a detection cell (measuring cell 11) serving as a capacitor. The introduction of a polarizing dielectric between the capacitor plates reduces the electric field intensity in vacuum E0 to P/ε0: E=E0−P/ε0 (4) where […] and P is the induced polarization of the dielectric with dielectric constant ε.
The polypeptides (S1) or (S2) dissolved in water have been placed as a dielectric between the electrode plates of the measuring capacitor (measuring cell 11), see FIG. 3A. Polypeptide ELDVPIPGRFDRRVSVAAD (S1) is a specific substrate for protein kinase A which catalyses the phosphorylation of serine. Phosphatase PP2B implements the dephosphorylation of serine of the polypeptide ELDVPIPGRFDRRVpSVAAD (S2). […]
Regarding the detection of peptide modification in tests through the measurement of the relative dielectric constant ε, the following should be added: four microlitres of samples, each containing the polypeptide S1 (unphosphorylated) or S2 (phosphorylated) (table 1), dissolved in water to a concentration of 1.14 mM, are directly introduced between the electrode plates of a measuring capacitor. The dielectric constant ε is measured at a temperature of t=23° C. […]

The nature of data set [2]: measurement of the frequency shift of an oscillator with the peptide sample as core of the induction coil. The class given is physicochemical. The settings on record: 150 μL sample, 1.14M in water, t=22° C., f0=5342.9 kHz; S2 instead of S1. An excerpt: According to a further variant of the method for the detection of posttranslational activities, the polypeptides (S1) or (S2) dissolved in water and used as substrates are located in a measuring cell with an inductivity of L and a capacitance of C which functions as an oscillator (FIG. 5). The frequency ω can be determined by […] which can be measured to a high degree of accuracy (10^−5).
For the detection of peptide modification through the measurement of the frequency shift of an oscillator, an experiment was carried out as follows:
A tube containing 150 μL of samples with unphosphorylated peptide S1 or phosphorylated peptide S2 (concentration […] in water) was placed as the core in an induction coil of an oscillator. Frequency f was measured at temperature t=22° C., f0=5342.9 kHz.

For “ELDVPIPGRFDRRVSVAAD [Sensor S1, synthesized polypeptide sensor, specific substrate for protein kinase A]”, the “dielectric constant ε” value in data set [1] is listed as 76.
With ELDVPIPGRFDRRVpSVAAD [Sensor S2], in data set [2], the oscillator frequency change entry is listed as “distinct reduction in frequency”. For the same substance, the “dielectric constant ε” value in data set [1] worked out at 70.
